Source: US20130136724A1, “PIG FEED, AND METHOD FOR FEEDING SAME” (Kaneka Corporation, priority 2010, published 2013)

Legend:
Type in all cases: in vivo, swine
[1] = Coenzyme Q10 content in colostrum of mother sows by HPLC (Example 1); settings: colostrum (first day) of mother sows, 60 ppm in feed, vs periods without administration
Description: About 160 mother sows from an actual swine farm were used and the study group was fed with feeds (coenzyme Q content in all feeds: 60 ppm) which were prepared by mixing coenzyme Q10 in normal feeds for mother sows (“ecobreed” during pregnancy, “ecolitter” during lactation). This feed test continued for eight months in which feeding to all the mother sows was simultaneously started and simultaneously finished. Before and after the test period, only the original feeds for mother sows were fed. […] Additionally, in order to analyze the coenzyme Q10 content in milk of mother sows during lactation, about 15 ml of colostrum (first day) were sampled in a 50-ml disposal tube from six mother sows during lactation in the periods in which coenzyme Q10 was administered to them or the periods in which coenzyme Q10 was not administered to them, and the samples were analyzed for coenzyme Q10 and the ratio of the reduced form and the oxidized form of coenzyme Q10 by HPLC.

mother sows [2] = experiment: Interval of recurrent estrous of coenzyme Q10-fed mother sows (Example 6); settings: 100 ppm in feed
Description: A coenzyme Q10-fed test group was fed with a feed prepared by adding coenzyme Q10 at a concentration of 100 ppm to a normal feed for mother sows (Kyodo Shiryo Co., Ltd.) for a test period (four months). A control group was fed with only the normal feed for mother sows. Estrous cycles were evaluated by observing whether sows were in estrus for three months from one month after the start of the test until the end of the test. The test group consisted of 1055 mother sows, and the control group consisted of 1022 sows.

mother sows [3] = experiment: Coenzyme Q10 fed to mother sows in middle or late pregnancy, growth of postnatal piglets (Example 3)
Excerpt: Test groups A to D were fed with feeds prepared by adding coenzyme Q10 at 100 ppm or 400 ppm to a normal feed for mother sows (crude protein 15.0% or more, crude fat 2.0% or more, crude fiber 5.0% or less, crude ash 8.0% or less, calcium 0.6% or more, phosphorus 0.4% or more, TDN 74.0% or more) in middle pregnancy (test groups A and B) or late pregnancy (test groups C and D), and were fed only with the normal feed for mother sows in the other periods. A control group was fed only with the normal feed for mother sows throughout the entire pregnancy period. Here, the term of “middle pregnancy” refers to the period from the 39th day until the 76th day after mating, and the term of “latter pregnancy” refers to the period (about 38 days) from the 77th day after mating until parturition. The test continued for about five and a half months. Also, coenzyme Q10 was not administered to the mother sows during lactation and the piglets born to the mother sows. As for head count of mother sows, each of control and test groups consisted of five mother sows per test, and the same test was repeated three times. Consequently, […]. Primiparous sows were not used, and only multiparous sows (para 2 to 10) were used for the test. A coenzyme Q10-containing premix was prepared by adding coenzyme Q10 to defatted rice bran to be a concentration of 1/60, and was mixed with the normal feed with a measuring spoon (15 g/spoon) to the above-mentioned coenzyme Q10 concentrations. The feeds thus prepared were fed in a common manner. The average amount of the feed per mother sow was 2.5 kg/day in all the groups. The mother sows and the piglets born to the mother sows were reared in accordance with rearing management standards of the farm. The piglets born to the mother sows of the respective groups were evaluated for weight at birth, weight at weaning, and the like.

piglets = experiment: Feeding coenzyme Q10 to piglets of coenzyme Q10-fed mother sows through weaning, piglet and fattening periods (Example 2); settings: piglets fed about 80 ppm in weaning period feed, vs control group
Excerpt: The piglets of the mother sows to which coenzyme Q10 had been administered in the test of Example 1 were fed with the following feeds: a feed prepared by adding coenzyme Q10 at about 80 ppm to a normal feed (“Healthy Pig” (registered trademark)) for the weaning period; and feeds prepared by adding coenzyme Q10 at 40 ppm to normal feeds (“Take Five” for the former half of the piglet period, “Nobita kun” for the latter half of the piglet period, and “NIC Niku Buta EX” for the fattening period). The piglets were reared and managed in a common manner. In all the periods, control groups were set up for each to which coenzyme Q10 was not administered, and the control group was also reared in a common manner.
The “weaning period” refers to the period from the 3rd day until 26th day after birth, and the “piglet period” refers to the period from the 27th day until the 84th day after birth.

mother sows [4] = experiment: Coenzyme Q10 fed to mother sows in early, middle or latter pregnancy, farrowing rate and number of weaned piglets (Example 4); settings: for Number of weaned piglets (average per mother sow): 100 ppm in feed of mother sows
Excerpt: Test groups E to G were fed with a feed prepared by adding coenzyme Q10 at a concentration of 100 ppm to a normal feed for mother sows (crude protein 15.0% or more, crude fat 2.0% or more, crude fiber 5.0% or less, crude ash 8.0% or less, calcium 0.6% or more, phosphorus 0.4% or more, TDN 74.0% or more) in early pregnancy period (test group […]), middle pregnancy period (test group F) or latter pregnancy period (test group G), and were fed only with the normal feed for mother sows in the other periods. A control group was fed only with the normal feed for mother sows throughout the entire pregnancy period. The “early pregnancy” refers to the period from mating until the 38th day, the “middle pregnancy” refers to the period from the 39th day until the 76th day after mating, and the “latter pregnancy” refers to the period (about 38 days) from the 77th day after mating until parturition. Although whether sows are pregnant can be determined by sonography generally on the 25th or 26th day after mating, the test feeding was started without checking whether the mother sows were pregnant in this test. Sows that were found not to be pregnant later were eliminated from the test. Coenzyme Q10 was not administered to the mother sows during lactation and piglets born to the mother sows. Each of control and test groups consisted of five mother sows per test, and the same test was repeated three times. Consequently, 15 sows in total were tested per group. Primiparous sows were not used, and only multiparous sows (para 2 to 10) were used for the test. A coenzyme Q10-containing premix was prepared by adding coenzyme Q10 to defatted rice bran to a concentration of 1/60. This premix was added to the normal feed with a measuring spoon (15 g/spoon) to the above-mentioned coenzyme Q10 concentrations. The feeds thus prepared were fed in a common manner. The amount of the feed fed to each mother sow was 2.5 kg/day in average in all the groups. The mother sows and piglets born to the mother sows were reared in accordance with rearing management standards of the farm. The respective groups were evaluated based on the number of piglets (the number of total births) per mother sow, and the number of living piglets among them (the number of live births), and the number of piglets that survived to weaning (the number of weaned piglets).

mother sows [5] = experiment: Fertility of second mating of coenzyme Q10-fed mother sows (Example 5); settings: 100 ppm in feed, four months, pregnancy determined on the 28th day after second mating
Description: A coenzyme Q10-fed test group was fed with a feed prepared by adding coenzyme Q10 at a concentration of 100 ppm to a normal feed for mother sows (Kvodo Shiryo Co., Ltd.) for a test period (four months). A control group was fed with only the normal feed for mother sows. The sows were tested for pregnancy on the 28th day after mating, and unfertilized sows were mated again. The fertility was evaluated as a pregnancy rate for three months from one month after the start of the test until the end of the test. Whether the sows were pregnant (fertilized) was determined by sonography or the like on the 28th day after first mating and second mating. The test group consisted of 952 mother sows, and the control group consisted of 992 mother sows.

mother sows [6] = experiment: Feed test in mother sows, coenzyme Q10 60 ppm in feeds for eight months (Example 1)
Description: About 160 mother sows from an actual swine farm were used and the study group was fed with feeds (coenzyme Q content in all feeds: 60 ppm) which were prepared by mixing coenzyme Q10 in normal feeds for mother sows (“ecobreed” during pregnancy, “ecolitter” during lactation). This feed test continued for eight months in which feeding to all the mother sows was simultaneously started and simultaneously finished. Before and after the test period, only the original feeds for mother sows were fed. In this test of feeding to the sows at pregnancy period, as the pregnancy period of sows continues 114 days and the interval to the next conception after parturition is about 31 days, it is apparent that in this test, coenzyme Q10 was administered to the mother sows in various stages of pregnancy or lactation which include a specific period in latter pregnancy, the entire pregnancy period, periods prior to or after mating, and a period from mating to early pregnancy. The mother sows were reared and managed in a common manner. In order to confirm that coenzyme Q10 was mixed in the feeds for mother sows, about 100 g of each coenzyme Q10-containing test feed were sampled from three points of different feeders after one week from the preparation thereof in the test period and the each sample was analyzed.

[7] = early pregnancy, 100 ppm, compared to the control group
[8] = 60 ppm in feed, vs periods in which coenzyme Q10 was not administered
[9] = piglets born to mother sows fed 60 ppm, vs piglets reared in a conventional manner

SMILES: COC1=C(OC)C(=O)C(C/C=C(\C)CC/C=C(\C)CC/C=C(\C)CC/C=C(\C)CC/C=C(\C)CC/C=C(\C)CC/C=C(\C)CC/C=C(\C)CC/C=C(\C)CCC=C(C)C)=C(C)C1=O [coenzyme Q10]
- coenzyme Q10 content in colostrum [1]: apparently higher
- interval of recurrent estrous (mother sows [2]; four months): 5.59 days
- shortening of the interval of recurrent estrous (mother sows [2]; test group vs control group): 0.33 days
- Weight at weaning (average, kg) (mother sows [3]; Test group A: middle pregnancy, 100 ppm in feed of mother sows): 8.37 kg
- Weight at weaning (average, kg) (mother sows [3]; Test group B: middle pregnancy, 400 ppm in feed of mother sows): 8.26 kg
- Weight at weaning (average, kg) (mother sows [3]; Test group C: late pregnancy, 100 ppm in feed of mother sows): 8.55 kg
- Weight at weaning (average, kg) (mother sows [3]; Test group D: late pregnancy, 400 ppm in feed of mother sows): 8.51 kg
- weight at birth (mother sows [3]; test groups (100 or 400 ppm, middle or late pregnancy) vs control group): not so different
- number of weaned piglets per mother sow (piglets): larger
- Number of weaned piglets (average per mother sow) (mother sows [4]; Test group E: early pregnancy): 10.4
- Number of weaned piglets (average per mother sow) (mother sows [4]; Test group F: middle pregnancy): 9.6
- Number of weaned piglets (average per mother sow) (mother sows [4]; Test group G: late pregnancy): 9.7
- increase in the average number of weaned piglets per mother sow (mother sows [4]; [7]): not less than 1
- increase in the number of live births (mother sows [4]; [7]): not less than 1
- increase in the number of total births (mother sows [4]; [7]): not less than 1
- fertility of second mating (pregnancy rate) (mother sows [5]): 94%
- frequency of albinism (mother sows [6]; [8]): decreased
- frequency of mummified (mother sows [6]; [8]): decreased
- number of milk-fed piglets (mother sows [6]; [8]): increased
- number of total births (mother sows [6]; [8]): increased
- number of weaned piglets (mother sows [6]; [8]): increased
- body weight of piglets after three weeks from birth (mother sows [6]; [9]): heavier
- episodes of diarrhea in piglets (mother sows [6]; [9]): less episodes
